The values that follow come from patent publication US4684622A, “Compositions and methods for producing vasodilation and antioxytocic activity” (SmithKline Beckman Corporation, priority 1986, dated 1987).

Numbered stars: 1 amine (or outer) side, 2 acyl side, 3 side chain; on linkers, the order of the positions; unused ones are H or OH. Bridge positions count the residues as written; N and C are the ends. Square brackets hold non-standard residues; d marks the D form. Peptide text beside a SMILES is read from it. X2 = O=C(CC1(S[*:2])CCCCC1)[*:1]; X1 = CC(C)(CC(=O)[*:1])S[*:2]; Mpa = O=C(O)CCS Where only a bound is given, the exact number is not on record here.

In test [1] the target is T1, V2-vasopressin receptors (Sus scrofa, UniProt P32307).
T1 construct: Medullary pig kidney tissue; from tissue; host or cells: pig (hog) kidney medulla
Kind of test: inhibition of 3H-LVP binding, medullary pig kidney tissue. As to the method:
(§1) Antagonistic activity of the V1 -vasopressin receptors is determined in a protocol which measures the reversal of the vasopressin-induced contraction of rat thoracic aorta tissue. This is expressed as KB (nM) in the table below. Such anti-pressor activity is confirmed in a similar in vitro protocol using the plasma membranes of rat liver. V2 -vasopressin antagonism is determined as receptor binding ability measured by inhibition of 3H-LVP binding (KB as nM), by inhibition of adenylate cyclase activation by vasopressin in the medullary tissue of hog kidneys (Ki as nM) or in vivo in the hydropenic rat protocol (ED300 μg/kg). These procedures are described in the literature: F. Stassen et al., J. Pharmacology and Experimental Therapeutics, 223 50 (1982); F. Stassen et al., 1st International Conference on Diuretics, Miami, Fla., March (1984). Antagonistic activity at oxytocin receptors is determined in the isolated rat uterus protocol: W. Sawyer, et al., Endocrinology 106 81 (1979); P. Melin, et al., J. of Endocrinology 88 173 (1981).
(§2) ^a Medullary pig kidney tissue, […]

Another test addresses T2, oxytocin receptors (Rattus norvegicus, UniProt P70536).
T2 construct: Rat uterus; from tissue; host or cells: isolated rat uterus
T2 sequence (P70536 1-388): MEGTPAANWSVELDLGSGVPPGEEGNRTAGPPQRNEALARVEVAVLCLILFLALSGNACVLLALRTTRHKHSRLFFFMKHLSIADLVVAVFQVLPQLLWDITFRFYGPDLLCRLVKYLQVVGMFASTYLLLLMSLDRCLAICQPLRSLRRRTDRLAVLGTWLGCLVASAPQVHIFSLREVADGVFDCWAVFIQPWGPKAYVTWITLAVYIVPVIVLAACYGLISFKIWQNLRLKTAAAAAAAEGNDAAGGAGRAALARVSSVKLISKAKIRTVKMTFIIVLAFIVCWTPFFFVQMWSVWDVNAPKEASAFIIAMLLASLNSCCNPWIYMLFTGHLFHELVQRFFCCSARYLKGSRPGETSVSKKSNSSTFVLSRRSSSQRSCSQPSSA
As to the kind of experiment: isolated rat uterus protocol. The test is classed as cell-based. The following applies: read-out: Rat OXT KB. As to the method: as §1

The target in test [2] is T3, V1-vasopressin receptors (Rattus norvegicus, UniProt P30560).
T3 construct: Rat aortic ring tissue; from tissue; host or cells: rat thoracic aorta rings
As to the kind of experiment: reversal of vasopressin-induced contraction of rat thoracic aorta tissue. In kind it is cell-based. To be noted: rat aortic ring tissue. The procedure: as §1
^c Rat aortic ring tissue, […]

Test [3] deals with T1, V2-vasopressin receptors. As to the kind of experiment: inhibition of adenylate cyclase activation by vasopressin, medullary pig kidney tissue. In kind it is biochemical. As to the method:
as §1, §2

In test [4] the target is T3, V1-vasopressin receptors. Kind of test: in vitro protocol using plasma membranes of rat liver. The test is classed as binding. The following applies: rat liver membrane. The procedure:
as §1

Test [5] deals with T4, V2-vasopressin receptors (Rattus norvegicus, UniProt Q00788).
T4 construct: Hydropenic rat; from tissue; host or cells: whole animal (hydropenic rat)
As to the kind of experiment: hydropenic rat protocol in vivo. The procedure:
as §1

T1 sequence (P32307 whole entry): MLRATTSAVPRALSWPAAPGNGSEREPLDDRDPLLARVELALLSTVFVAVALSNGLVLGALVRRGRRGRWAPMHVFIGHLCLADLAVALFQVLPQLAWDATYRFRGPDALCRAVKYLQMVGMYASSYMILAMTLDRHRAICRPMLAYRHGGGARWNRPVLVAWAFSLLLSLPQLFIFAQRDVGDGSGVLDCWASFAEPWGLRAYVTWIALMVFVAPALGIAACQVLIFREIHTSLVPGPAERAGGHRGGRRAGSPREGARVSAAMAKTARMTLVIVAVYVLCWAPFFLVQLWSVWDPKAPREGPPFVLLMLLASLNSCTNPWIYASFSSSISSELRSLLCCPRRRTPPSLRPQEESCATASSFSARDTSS
T3 sequence (P30560 whole entry): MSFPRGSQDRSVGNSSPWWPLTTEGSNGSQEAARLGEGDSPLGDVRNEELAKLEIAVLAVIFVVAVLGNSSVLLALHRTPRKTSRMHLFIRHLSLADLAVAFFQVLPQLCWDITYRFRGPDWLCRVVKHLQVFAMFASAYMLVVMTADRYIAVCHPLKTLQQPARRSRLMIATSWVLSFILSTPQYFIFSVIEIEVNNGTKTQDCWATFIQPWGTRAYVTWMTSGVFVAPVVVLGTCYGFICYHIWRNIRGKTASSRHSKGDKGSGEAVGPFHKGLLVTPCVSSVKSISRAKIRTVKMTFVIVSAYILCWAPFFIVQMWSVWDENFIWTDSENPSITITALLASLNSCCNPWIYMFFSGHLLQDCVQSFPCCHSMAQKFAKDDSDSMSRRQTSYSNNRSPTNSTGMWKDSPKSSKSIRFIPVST
T4 sequence (Q00788 whole entry): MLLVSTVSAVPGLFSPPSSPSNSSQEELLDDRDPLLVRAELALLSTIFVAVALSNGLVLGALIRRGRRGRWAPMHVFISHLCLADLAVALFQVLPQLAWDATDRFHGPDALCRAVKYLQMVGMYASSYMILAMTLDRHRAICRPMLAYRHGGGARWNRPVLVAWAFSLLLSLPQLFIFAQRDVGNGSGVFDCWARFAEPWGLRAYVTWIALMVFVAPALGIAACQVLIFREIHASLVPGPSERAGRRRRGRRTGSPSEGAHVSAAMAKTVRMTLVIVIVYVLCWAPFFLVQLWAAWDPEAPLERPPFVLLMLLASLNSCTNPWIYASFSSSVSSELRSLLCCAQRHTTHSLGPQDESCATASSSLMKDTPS

For the compound `CCOc1ccc(C[C@H]2NC(=O)CC(C)(C)SSC[C@@H](C(=O)N[C@@H](CCCNC(=N)N)C(N)=O)NC(=O)[C@H](CC(N)=O)NC(=O)[C@H](CCC(N)=O)NC(=O)[C@H](Cc3ccccc3)NC2=O)cc1` [C] ([dY](Et)FQNCR-NH2; linker N-5 via X1), the Kb on V2-vasopressin receptors [1] is 350 nM; at oxytocin receptors it was 1.88 nM; at V1-vasopressin receptors [2] (estimated, compound noncompetitive) it was 0.0072 nM.

Consider `CCOc1ccc(C[C@H]2NC(=O)CCSSC[C@@H](C(=O)N[C@@H](CCCNC(=N)N)C(=O)NCC(N)=O)NC(=O)[C@H](CC(N)=O)NC(=O)[C@H]([C@@H](C)O)NC(=O)[C@H]([C@@H](C)CC)NC2=O)cc1` [E] ([Mpa][dY](Et)ITNCRG-NH2; disulfide 1-6), for which the Kb at V2-vasopressin receptors [1] was found to be 4100 nM; at oxytocin receptors, 17.7 nM.

With `COc1ccc(C[C@@H]2NC(=O)CC(C)(C)SSC[C@@H](C(=O)N3CCC[C@H]3C(=O)N[C@@H](CCCNC(=N)N)C(=O)NCC(N)=O)NC(=O)[C@H](CC(N)=O)NC(=O)[C@H](CCC(N)=O)NC(=O)[C@H](Cc3ccccc3)NC2=O)cc1` [F] (Y(Me)FQNCPRG-NH2; linker N-5 via X1), the figures for the Kb on V2-vasopressin receptors [1] and on V1-vasopressin receptors [4] were 70 nM and 2.9 nM, respectively. For the same compound, the “Pig V2 Ki” value on V2-vasopressin receptors [3] is “agonist”.

Regarding `COc1ccc(C[C@@H]2NC(=O)CC3(CCCCC3)SSC[C@@H](C(=O)N3CCC[C@H]3C(=O)N[C@@H](CCCN=C(N)N)C(=O)NCC(N)=O)NC(=O)[C@H](CC(N)=O)NC(=O)[C@H](CCC(N)=O)NC(=O)[C@H](Cc3ccccc3)NC2=O)cc1` [G] (Y(Me)FQNCPRG-NH2; linker N-5 via X2), the results for the Kb on V2-vasopressin receptors [1], at V1-vasopressin receptors [4] and at V1-vasopressin receptors [2] were 369 nM, 0.48 nM and 0.026 nM, respectively. The same compound displayed an inhibitory constant (Ki) on V2-vasopressin receptors [3] of 210 nM.

For `COc1ccc(C[C@@H]2NC(=O)CC(C)(C)SSC[C@@H](C(=O)N[C@@H](CCCNC(=N)N)C(=O)NCC(N)=O)NC(=O)[C@H](CC(N)=O)NC(=O)[C@H](CCC(N)=O)NC(=O)[C@H](Cc3ccccc3)NC2=O)cc1` [B] (Y(Me)FQNCRG-NH2; linker N-5 via X1), the Kb at V2-vasopressin receptors [1] came out at 3300 nM; at V1-vasopressin receptors [4], 37 nM; at oxytocin receptors, 18.9 nM; on V1-vasopressin receptors [2], 1.48 nM. At V2-vasopressin receptors [5], the “Rat V2 ED300” value is greater than 5.977 mg/kg.

For `COc1ccc(C[C@@H]2NC(=O)CC(C)(C)SSC[C@@H](C(=O)N[C@@H](CCCNC(=N)N)C(N)=O)NC(=O)[C@H](CC(N)=O)NC(=O)[C@H](CCC(N)=O)NC(=O)[C@H](Cc3ccccc3)NC2=O)cc1` [A] (Y(Me)FQNCR-NH2; linker N-5 via X1), the Kb on V2-vasopressin receptors [1] was 3000 nM; on V1-vasopressin receptors [4], 38 nM; at oxytocin receptors, 32.6 nM; on V1-vasopressin receptors [2], 5.69 nM. Also, the “Rat V2 ED300” value at V2-vasopressin receptors [5] was greater than 5.959 mg/kg.

For `CCOc1ccc(C[C@H]2NC(=O)CCSSC[C@@H](C(=O)N[C@@H](CCCNC(=N)N)C(N)=O)NC(=O)[C@H](CC(N)=O)NC(=O)[C@H]([C@@H](C)O)NC(=O)[C@H]([C@@H](C)CC)NC2=O)cc1` [D] ([Mpa][dY](Et)ITNCR-NH2; disulfide 1-6), the values for the Kb at V2-vasopressin receptors [1] and at oxytocin receptors were 1600 nM and 11.4 nM, respectively.
